From US12371453B2, “Polypeptide having antibacterial activity, composition for preventing or treating sepsis comprising same, and antibacterial composition” (priority 2019, dated 2025)
In brackets after ≈: the same amount, converted by molar mass. Like-named read-outs stand apart in the source and are kept apart here. Square brackets hold non-standard residues; d marks the D form. Peptide text beside a SMILES is read from it.

Legend:
[1] = LPS binding affinity by Isothermal Titration Calorimeter (ITC); set-up: species or system E. coli K1
Excerpt: FPT (ADK 44-54) is denoted by wild type (WT), and peptides in which a point mutation occurred at various sites in WT were manufactured (FP3, FP5, FP6, and FP9). To increase the interaction with LPS in a residue sequence of FP3, peptides were designed based on FP3- and LPS-binding models (FP12-NH2 and FP13-NH2), and peptides were designed by additionally introducing a non-natural amino acid and an amino acid isomer (allomeric D-type amino acid) (allD FP12-NH2, allD FP13-NH2, allD FP-13-9a, allD FP-13-9w, allD FP-13-9k, and allD FP13-NH2 (AcOH)). In addition, an N-terminus PEGylated peptide (PEG-alld FP13-NH2 (AcOH)) was additionally designed, synthesized, and provided by ANYGEN, Co. Ltd. The binding affinity between each of the provided peptides and lipopolysaccharide (LPS) was confirmed through measuring the binding affinity (Kd) using Isothermal Titration Calorimeter (ITC).
Specifically, a method of analyzing binding affinity (Kd) between a peptide and LPS is as follows.
Measurement was carried out using a Malvern MicroCal PEAQ-ITC cell instrument, and the following pretreatment was carried out to confirm interaction with LPS. The amount and morphology of a sample cell are 300 μL and coin-shaped, fixed-in-place, respectively; a syringe rotation rate was 1,200 rpm; and a temperature was 30° C., 35° C. or 25° C.
Before the experiment, LPS and the peptide were previously diluted with PBS, thereby preparing 2 mM LPS and 0.2 mM peptide. 300 μL of the peptide was added into cells in the ITC instrument, which had been washed, and 40 μL of LPS was put into a syringe. After measurement conditions for ITC (temperature, number of injections) were set, the syringe was inserted into the cell, and ITC measurement was started. When the measurement was completed, analysis is performed, and the Kd values of LPS and the peptide were calculated.

[2] = Calcein dye leakage from liposome mimicking gram-positive bacterial cell membrane; assay type: biochemical; settings: calcein-encapsulated liposome
Procedure: To study the action mechanisms for FPT2-NH2, FPT3-NH2, allD FPT2-NH2, and allD FP13-NH2 peptides, the disruption ability of the peptides against a liposome mimicking a bacterial cell membrane was measured.

E. coli = assay type: cell-based
[3] = Calcein dye leakage from liposome mimicking human red blood cell membrane; assay type: biochemical; settings: calcein-encapsulated liposome
Procedure: To study an action mechanism for FP12-NH2, FP13-NH2, allD FP12-NH2, and allD FP13-NH2 peptides, the disruption ability of the peptides against liposomes mimicking a bacterial cell membrane and a red blood cell membrane was measured.
EYPG is an abbreviation for egg yolk L-α-phosphatidyl-DL-glycerol, and EYPC is an abbreviation for egg yolk 1,2-diacyl-sn-glycero-3-phosphocholine. CH is an abbreviation for cholesterol. After dissolving the phospholipids composed according to the content of each component in chloroform, the chloroform was removed using a rotary evaporator, and lyophilization was performed overnight. Afterward, the dried lipid film was dissolved in a Tris-buffer solution, and calcein […]. After repeated freezing and thawing, the calcein-encapsulated liposome was manufactured using an extruder. Subsequently, after an excitation wavelength of a spectrofluorimeter (Shimadzu RF 5301 PC spectrofluorimeter, Japan) was set to 490 nm, and an emission wavelength was set to 520 nm, the peptide was administered to the liposome to measure relative dye leakage, provided that a 100% dye leakage was expressed as fluorescence intensity when 0.010% Triton-X100 was added.
The upper graphs of FIG. 3 show the % dye leakage for an EYPC/EYPG (7:3, w/w) liposome mimicking bacterial cells, encapsulating a fluorescent dye, calcein, by a peptide according to a peptide concentration. […] The lower graphs of FIG. 3 show the % dye leakage for an EYPC/CH (10:1, w/w) liposome, which is […] mimicking a human red blood, encapsulating a fluorescent dye, calcein, by a peptide according to a peptide concentration.

[4] = tested on: trypsin, protease K, and chymotrypsin; settings: read out by antibacterial activity
A. baumannii = assay type: cell-based
CR-Klebsiella pneumoniae = settings: CR-
Procedure: (§1) The antibacterial activity was evaluated according to an antibacterial activity test method for measuring the minimum inhibitory concentration 50 (MIC50; the minimal concentration that kills 50% of bacteria).
(§2) More specifically, 100 μL of a medium was dispensed into each well of a 96-well plate, and in the first column, an antibiotic and a peptide in 200 μL of the medium were dispensed. 1/2 serial dilution was performed from columns 1 to 11 and five types of antibiotic-resistant bacteria (ESBL-resistant E. coli, carbapenem-resistant A. baumannii, carbapenem-resistant Klebsiella pneumoniae, carbapenem-resistant Pseudomonas aeruginosa, colistin-resistant Acinetobactor baumannii), which had been previously cultured, were diluted (OD600 nm value in dilution: approximately 0.0025) and dispensed into each well. The plate was incubated in a 37° C. incubator for 4 hours, and measured at OD600 nm.

ESBL (E. coli) = settings: ESBL
Procedure: as §1, §2

[5] = tested on: Colistin resistant AB (Acinetobactor baumannii)
Procedure: as §1, §2

In the case of `CC(C)C[C@@H](NC(=O)[C@H](N)CCCCN)C(=O)N[C@H](CCCNC(=N)N)C(=O)N[C@@H](C(=O)N[C@H](CCCCN)C(=O)N[C@H](CC(C)C)C(=O)N[C@H](CCCNC(=N)N)C(=O)N[C@H](CCCNC(=N)N)C(=O)N[C@H](Cc1ccc(O)cc1)C(=O)N[C@H](CC(C)C)C(=O)N[C@H](CCCNC(=N)N)C(N)=O)C(C)C` [allD FP13-NH2] (H-[dK][dL][dR][dV][dK][dL][dR][dR][dY][dL][dR]-NH2; N-terminus assumed), the “LPS binding affinity (in words)” value ([1]; compared with FP1 (wild type, WT)) is reported as “strong LPS binding affinity”, the Kd ([1]; peptide binding to LPS, read-out: Kd (calculated by ITC)) is reported as 4.78 µM and the “dye leakage, EYPG/EYPC (6:4, w/w) liposome mimicking gram-positive bacterial cell membrane” value [2] is reported as “high dye leakage”. The MIC50 (E. coli) was 2 µM (≈ 3 µg/mL), the MIC90 (E. coli) was 4 µM (≈ 6 µg/mL) and the MIC90 (E. coli; E. coli + 0.8 uM Chymotrypsin) was 6(4~8) uM. For the same compound, the MIC90 (E. coli; E. coli + 0.8 uM protease K) was 6(4~8) uM, the “dye leakage, PC/CH liposome mimicking a red blood cell membrane” value [3] was “almost no dye leakage” and the “resistance to the proteolytic enzyme” value [4] was “much improved resistance”. For the same compound, the MIC50 (A. baumannii) was 4 µM (≈ 6 µg/mL), the MIC90 (A. baumannii) was 8 µM (≈ 12 µg/mL) and the “MIC50, CR-Klebsiella pneumoniae” value (CR-Klebsiella pneumoniae) was <8 µg/mL. The “MIC50, ESBL (E. coli)” value (ESBL (E. coli)) was <0.5 µg/mL and the “MIC50, Colistin resistant AB” value [5] was <16 µg/mL.
